Test results from the supplement of paper PMC5908809.

Experiments:
NK-YS (IL-2 2.5 ng/mL) [1] = experiment: drug sensitivity score (DSS) (DSS units); higher = more sensitive; extreme values may be limits of the assay; conditions: 72 h
KHYG-1 (IL-2 2.5 ng/mL) [2] = experiment: as above; conditions: 72 h
NK-92 (IL-2 2.5 ng/mL) [3] = experiment: as above; conditions: 72 h
[4] = tested on: normal primary NK cells, pool 2 (3 donors) (IL-2 2.5 ng/mL); experiment: as above; conditions: 72 h
[5] = tested on: normal primary NK cells, pool 1 (3 donors), resting (IL-2 0 ng/mL); experiment: as above; conditions: 72 h
YT (IL-2 2.5 ng/mL) [6] = experiment: as above; conditions: 72 h
DERL-7 (IL-2 2.5 ng/mL) [7] = experiment: as above; conditions: 72 h
NKL (IL-2 2.5 ng/mL) [8] = experiment: as above; conditions: 72 h
[9] = tested on: normal primary NK cells, pool 1 (3 donors) (IL-2 2.5 ng/mL); experiment: as above; conditions: 72 h
IMC-1 (IL-2 20 ng/mL) [10] = experiment: as above; conditions: 72 h
SNK-6 (IL-2 2.5 ng/mL) [11] = experiment: as above; conditions: 72 h
KAI3 (IL-2 2.5 ng/mL) [12] = experiment: as above; conditions: 72 h
[13] = tested on: normal primary NK cells, pool 3 (3 donors) (IL-2 2.5 ng/mL); experiment: as above; conditions: 72 h
[14] = tested on: normal NK cells expanded with K562-aAPC; experiment: as above; conditions: 72 h; IL-2 2.5 ng/mL
Method: (§1)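 Drug sensitivity and resistance testing on K562-aAPC-expanded normal NK cells: 5 concentrations (10-fold steps over a 10,000-fold range), 72 h at 37 °C, viability by CellTiter-Glo normalised to DMSO and benzethonium chloride controls; DSS from the fitted curve.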

[15] = tested on: normal NK cells expanded with K562-aAPC; experiment: percent inhibition of viability; higher = more inhibition; conditions: 72 h, IL-2 2.5 ng/mL
Method: as §1

NK-YS (IL-2 2.5 ng/mL) [16] = experiment: as above; conditions: 72 h
KHYG-1 (IL-2 2.5 ng/mL) [17] = experiment: as above; conditions: 72 h
NK-92 (IL-2 2.5 ng/mL) [18] = experiment: as above; conditions: 72 h
[19] = tested on: normal primary NK cells, pool 2 (3 donors) (IL-2 2.5 ng/mL); experiment: as above; conditions: 72 h
[20] = tested on: normal primary NK cells, pool 1 (3 donors), resting (IL-2 0 ng/mL); experiment: as above; conditions: 72 h
YT (IL-2 2.5 ng/mL) [21] = experiment: as above; conditions: 72 h
DERL-7 (IL-2 2.5 ng/mL) [22] = experiment: as above; conditions: 72 h
NKL (IL-2 2.5 ng/mL) [23] = experiment: as above; conditions: 72 h
[24] = tested on: normal primary NK cells, pool 1 (3 donors) (IL-2 2.5 ng/mL); experiment: as above; conditions: 72 h
IMC-1 (IL-2 20 ng/mL) [25] = experiment: as above; conditions: 72 h
SNK-6 (IL-2 2.5 ng/mL) [26] = experiment: as above; conditions: 72 h
KAI3 (IL-2 2.5 ng/mL) [27] = experiment: as above; conditions: 72 h
[28] = tested on: normal primary NK cells, pool 3 (3 donors) (IL-2 2.5 ng/mL); experiment: as above; conditions: 72 h

CO[C@H]1C[C@@H]2CC[C@@H](C)[C@@](O)(O2)C(=O)C(=O)N2CCCC[C@H]2C(=O)O[C@H]([C@H](C)C[C@@H]2CC[C@@H](OCCO)[C@H](OC)C2)CC(=O)[C@H](C)/C=C(\C)[C@@H](O)[C@@H](OC)C(=O)[C@H](C)C[C@H](C)/C=C/C=C/C=C/1C [Everolimus] (max concentration tested 100 nM)
Conditions	drug sensitivity score
DERL-7 (IL-2 2.5 ng/mL) [7]	12.3
IMC-1 (IL-2 20 ng/mL) [10]	0
KAI3 (IL-2 2.5 ng/mL) [12]	12.1
KHYG-1 (IL-2 2.5 ng/mL) [2]	5.27
NK-92 (IL-2 2.5 ng/mL) [3]	1.27
NK-YS (IL-2 2.5 ng/mL) [1]	13.5
NKL (IL-2 2.5 ng/mL) [8]	14.5
SNK-6 (IL-2 2.5 ng/mL) [11]	16.6
YT (IL-2 2.5 ng/mL) [6]	8.98
[4]	0
[5]	1.91
[9]	0
[13]	0
[14]	0

percent inhibition of viability [%]
Conditions	0.01 nM	0.1 nM	1 nM	10 nM	100 nM
DERL-7 (IL-2 2.5 ng/mL) [22]	-6.16	5.85	26.6	49.4	52.4
IMC-1 (IL-2 20 ng/mL) [25]	-0.49	-3.23	-12.1	-39.5	-47.1
KAI3 (IL-2 2.5 ng/mL) [27]	-3.78	2.36	31.4	45.3	37.6
KHYG-1 (IL-2 2.5 ng/mL) [17]	-2.44	-5.06	0.91	30.6	28.2
NK-92 (IL-2 2.5 ng/mL) [18]	-9.11	-13.2	0.14	10.7	17
NK-YS (IL-2 2.5 ng/mL) [16]	-2.59	2.94	38.2	47.2	45.8
NKL (IL-2 2.5 ng/mL) [23]	4.18	17.6	36.9	46	43.3
SNK-6 (IL-2 2.5 ng/mL) [26]	5.61	27	39.2	45.4	42.4
YT (IL-2 2.5 ng/mL) [21]	0.19	-0.65	15.8	38.4	37
[15]	-0.77	-3.8	-2.52	2.05	0.46
[19]	-7.7	-1.98	0.82	5.73	4.97
[20]	-9.7	-10.5	-6.43	11.5	21.5
[24]	-12.5	-14.8	-8.5	3.67	5.77
[28]	-12.6	-4.69	-3.14	-1.42	-2.25

O=C1NC(=O)[C@@H](c2cn3c4c(cccc24)CCC3)[C@@H]1c1c[nH]c2ccccc12 [Tivantinib] (max concentration tested 1000 nM)
Conditions	drug sensitivity score
DERL-7 (IL-2 2.5 ng/mL) [7]	5.07
IMC-1 (IL-2 20 ng/mL) [10]	5.57
KAI3 (IL-2 2.5 ng/mL) [12]	4.63
KHYG-1 (IL-2 2.5 ng/mL) [2]	7.4
NK-92 (IL-2 2.5 ng/mL) [3]	10.4
NK-YS (IL-2 2.5 ng/mL) [1]	7.74
NKL (IL-2 2.5 ng/mL) [8]	4.03
SNK-6 (IL-2 2.5 ng/mL) [11]	12.9
YT (IL-2 2.5 ng/mL) [6]	6.61
[4]	2.26
[5]	0
[9]	0
[13]	1
[14]	4.27

percent inhibition of viability [%]
Conditions	0.1 nM	1 nM	10 nM	100 nM	1000 nM
DERL-7 (IL-2 2.5 ng/mL) [22]	1.35	4.31	5.17	-5.73	98.9
IMC-1 (IL-2 20 ng/mL) [25]	-2.06	-7.71	1.1	0.97	97.6
KAI3 (IL-2 2.5 ng/mL) [27]	-4.06	0.6	3.77	11.4	52.4
KHYG-1 (IL-2 2.5 ng/mL) [17]	0.89	-0.35	5.11	11.5	99.1
NK-92 (IL-2 2.5 ng/mL) [18]	-9.63	-0.01	-3.88	39	94.7
NK-YS (IL-2 2.5 ng/mL) [16]	0.78	-2.63	4.33	31.1	73.6
NKL (IL-2 2.5 ng/mL) [23]	-20.3	-13.1	-9.15	-9.89	84.3
SNK-6 (IL-2 2.5 ng/mL) [26]	9.19	0.24	0.91	70.4	83.3
YT (IL-2 2.5 ng/mL) [21]	-0.05	-2.14	2.38	8.83	93.5
[15]	4.66	1	5.6	5.87	61
[19]	-7.65	-12.3	-6.73	13.4	23.2
[20]	-0.8	10.8	3.09	6.28	8.64
[24]	-0.92	0.64	-7.52	-8.4	6.83
[28]	-12.8	-3.79	-11.9	5.81	17.4

CNC(=O)c1ccc2cc([C@@]3(O)CCn4cncc43)ccc2c1 [Orteronel] (max concentration tested 10000 nM)
Conditions	drug sensitivity score
DERL-7 (IL-2 2.5 ng/mL) [7]	0
IMC-1 (IL-2 20 ng/mL) [10]	0
KAI3 (IL-2 2.5 ng/mL) [12]	0
KHYG-1 (IL-2 2.5 ng/mL) [2]	0
NK-92 (IL-2 2.5 ng/mL) [3]	0
NK-YS (IL-2 2.5 ng/mL) [1]	0
NKL (IL-2 2.5 ng/mL) [8]	0
SNK-6 (IL-2 2.5 ng/mL) [11]	0
YT (IL-2 2.5 ng/mL) [6]	0
[4]	0
[5]	2.88
[9]	0
[13]	0
[14]	0

percent inhibition of viability [%]
Conditions	1 nM	10 nM	100 nM	1000 nM	10000 nM
DERL-7 (IL-2 2.5 ng/mL) [22]	-6.34	0.71	-1.69	-1	-1.19
IMC-1 (IL-2 20 ng/mL) [25]	-2.16	2.99	-1.56	2.85	-4.82
KAI3 (IL-2 2.5 ng/mL) [27]	-7.13	-0.59	-2.47	-4.32	-11.3
KHYG-1 (IL-2 2.5 ng/mL) [17]	-5.73	-2.14	-3.55	0.58	-8.03
NK-92 (IL-2 2.5 ng/mL) [18]	-11.2	0.34	-4.73	4.66	-21.7
NK-YS (IL-2 2.5 ng/mL) [16]	-3.4	-3.35	-1.88	-0.21	-5.45
NKL (IL-2 2.5 ng/mL) [23]	-5	-13	-12.1	0.4	-4.85
SNK-6 (IL-2 2.5 ng/mL) [26]	12.8	29.5	-7.71	18.8	-9.24
YT (IL-2 2.5 ng/mL) [21]	-1.09	-0.82	-3	6.56	-4.8
[15]	-5.71	-7.96	-3.03	-3.58	-6.05
[19]	-7.25	-8.3	-5.11	-0.18	-0.97
[20]	-13	-1.84	15.9	8.47	14.4
[24]	-3.93	-7.55	-2.24	5.97	4.41
[28]	-9.86	-10.5	-4.17	-8.67	-0.69
